Experimental data taken from ChEMBL document CHEMBL4028801, “A multifactorial approach to hepatobiliary transporter assessment enables improved therapeutic compound development” (Toxicol Sci, 2013).

Experiments:
[1] = target: T1, ATP-binding cassette sub-family C member 4 (Homo sapiens, UniProt O15439); test: Inhibition of human MRP4 overexpressed in Sf9 cell membrane vesicles assessed as uptake of [3H]-estradiol-17beta-D-glucuronide in presence of ATP and GSH measured after 20 mins by membrane vesicle transport assay; type: ADME, cell-based
T1 sequence (O15439 whole entry): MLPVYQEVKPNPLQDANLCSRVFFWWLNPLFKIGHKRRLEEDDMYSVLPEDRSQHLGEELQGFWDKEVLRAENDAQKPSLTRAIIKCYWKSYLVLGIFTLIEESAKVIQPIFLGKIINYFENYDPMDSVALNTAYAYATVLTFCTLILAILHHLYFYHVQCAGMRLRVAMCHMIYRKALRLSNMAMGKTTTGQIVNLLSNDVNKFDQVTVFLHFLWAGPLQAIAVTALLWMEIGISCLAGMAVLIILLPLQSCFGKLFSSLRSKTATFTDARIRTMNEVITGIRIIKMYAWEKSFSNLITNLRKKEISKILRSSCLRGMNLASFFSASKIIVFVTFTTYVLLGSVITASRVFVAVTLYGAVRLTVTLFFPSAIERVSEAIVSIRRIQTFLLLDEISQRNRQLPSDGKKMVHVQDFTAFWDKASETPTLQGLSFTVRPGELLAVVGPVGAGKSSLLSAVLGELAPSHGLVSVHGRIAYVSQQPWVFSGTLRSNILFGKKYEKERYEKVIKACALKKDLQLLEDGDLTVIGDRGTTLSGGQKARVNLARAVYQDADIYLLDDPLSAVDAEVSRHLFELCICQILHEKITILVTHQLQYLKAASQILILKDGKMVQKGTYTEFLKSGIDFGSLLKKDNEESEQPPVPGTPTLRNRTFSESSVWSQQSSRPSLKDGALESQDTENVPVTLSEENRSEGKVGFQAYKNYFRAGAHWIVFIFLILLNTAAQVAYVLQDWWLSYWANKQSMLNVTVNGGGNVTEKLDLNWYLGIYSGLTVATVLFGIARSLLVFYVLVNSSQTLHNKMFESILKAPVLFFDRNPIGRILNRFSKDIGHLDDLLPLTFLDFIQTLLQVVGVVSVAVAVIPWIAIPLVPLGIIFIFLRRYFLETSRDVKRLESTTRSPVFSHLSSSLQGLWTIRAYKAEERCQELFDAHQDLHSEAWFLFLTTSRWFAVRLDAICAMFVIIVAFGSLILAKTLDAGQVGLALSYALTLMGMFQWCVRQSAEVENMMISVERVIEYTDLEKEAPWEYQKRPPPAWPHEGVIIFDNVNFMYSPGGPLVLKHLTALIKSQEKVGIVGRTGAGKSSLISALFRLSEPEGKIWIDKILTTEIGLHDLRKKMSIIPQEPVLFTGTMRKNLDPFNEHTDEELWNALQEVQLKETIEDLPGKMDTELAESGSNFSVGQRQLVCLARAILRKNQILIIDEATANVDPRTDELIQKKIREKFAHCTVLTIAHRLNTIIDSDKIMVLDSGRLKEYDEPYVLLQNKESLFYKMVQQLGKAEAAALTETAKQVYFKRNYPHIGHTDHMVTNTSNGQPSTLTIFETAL

[2] = AUC in human at 0.35 mg, po QD after 24 hrs; type: ADME, organism-based; parameters: time < 24 hr, dose 0.35 mg, route oral; settings: in vivo
[3] = Drug concentration at steady state in human at 0.35 mg, po QD after 24 hrs; type: ADME, organism-based; settings: in vivo, read-out: Css
[4] = target: ATP-binding cassette sub-family C member 2 (Homo sapiens, UniProt Q92887); test: Inhibition of human MRP2 overexpressed in Sf9 cell membrane vesicles assessed as uptake of [3H]-estradiol-17beta-D-glucuronide in presence of ATP and GSH measured after 20 mins by membrane vesicle transport assay
[5] = Ratio of drug concentration at steady state in human at 0.35 mg, po QD after 24 hrs to IC50 for human BSEP overexpressed in Sf9 insect cells; type: ADME, organism-based; settings: in vivo
[6] = target: ATP-binding cassette sub-family C member 3 (Homo sapiens, UniProt O15438); test: Inhibition of human MRP3 overexpressed in Sf9 insect cell membrane vesicles assessed as uptake of [3H]-estradiol-17beta-D-glucuronide in presence of ATP and GSH measured after 10 mins by membrane vesicle transport assay; type: ADME, cell-based
Bile salt export pump = Bile salt export pump (Homo sapiens, UniProt O95342); test: Inhibition of human BSEP overexpressed in Sf9 cell membrane vesicles assessed as uptake of [3H]-taurocholate in presence of ATP measured after 15 to 20 mins by membrane vesicle transport assay; type: ADME, cell-based
[7] = Ratio of drug concentration at steady state in human at 1 to 16 mg or 4 to 8 mg, po QD extended-release tablets after 24 hrs to IC50 for human BSEP overexpressed in Sf9 insect cells; type: ADME, organism-based; settings: in vivo
[8] = AUC in human at 1 to 16 mg or 4 to 8 mg, po QD extended-release tablets after 24 hrs; type: ADME, organism-based; settings: in vivo
[9] = Ratio of drug concentration at steady state in human at 1 to 16 mg or 4 to 8 mg, po QD extended-release tablets after 24 hrs to IC50 for human MRP4 overexpressed in Sf9 insect cells; type: ADME, organism-based; settings: in vivo
Homo sapiens = test: Drug concentration at steady state in human at 1 to 16 mg or 4 to 8 mg, po QD extended-release tablets after 24 hrs; type: ADME, organism-based; settings: in vivo
[10] = Drug concentration at steady state in human at 400 mg, po BID after 12 hrs; type: ADME, organism-based; settings: in vivo, read-out: Css
[11] = Ratio of drug concentration at steady state in human at 400 mg, po BID after 12 hrs to IC50 for human BSEP overexpressed in Sf9 insect cells; type: ADME, organism-based; settings: in vivo
[12] = AUC in human at 400 mg, po BID after 12 hrs; type: ADME, organism-based; parameters: time < 12 hr, dose 400 mg, route oral; settings: in vivo
[13] = Ratio of drug concentration at steady state in human in benign prostate hyperplasia patient at 5 mg, po QD after 24 hrs to IC50 for human BSEP overexpressed in Sf9 insect cells; type: ADME, organism-based; settings: in vivo
[14] = AUC in benign prostate hyperplasia patient at 5 mg, po QD after 24 hrs; type: ADME, organism-based; parameters: time < 24 hr, dose 5 mg, route oral; settings: male, human, in vivo
[15] = Drug concentration at steady state in benign prostate hyperplasia patient at 5 mg, po QD after 24 hrs; type: ADME, organism-based; settings: male, human, in vivo, read-out: Css
[16] = AUC in alopecia patient at 1 mg, po QD after 24 hrs; type: ADME, organism-based; parameters: time < 24 hr, dose 1 mg, route oral; settings: human, in vivo
[17] = Ratio of drug concentration at steady state in human in alopecia patient at 1 mg, po QD after 24 hrs to IC50 for human BSEP overexpressed in Sf9 insect cells; type: ADME, organism-based; settings: in vivo
[18] = Ratio of drug concentration at steady state in human in benign prostate hyperplasia patient at 5 mg, po QD after 24 hrs to IC50 for human MRP4 overexpressed in Sf9 insect cells; type: ADME, organism-based; settings: in vivo
[19] = Drug concentration at steady state in alopecia patient at 1 mg, po QD after 24 hrs; type: ADME, organism-based; settings: human, in vivo, read-out: Css
[20] = Ratio of drug concentration at steady state in human in alopecia patient at 1 mg, po QD after 24 hrs to IC50 for human MRP4 overexpressed in Sf9 insect cells; type: ADME, organism-based; settings: in vivo
[21] = Drug concentration at steady state in human at 6 to 12 mg, po BID after 12 hrs; type: ADME, organism-based; settings: in vivo, read-out: Css
[22] = Ratio of drug concentration at steady state in human at 6 to 12 mg, po BID after 12 hrs to IC50 for human BSEP overexpressed in Sf9 insect cells; type: ADME, organism-based; settings: in vivo
[23] = AUC in human at 6 to 12 mg, po BID after 12 hrs; type: ADME, organism-based; settings: in vivo
[24] = Drug concentration at steady state in human at 2.5 to 20 mg, po QD after 24 hrs; type: ADME, organism-based; settings: in vivo, read-out: Css
[25] = AUC in human at 2.5 to 20 mg, po QD after 24 hrs; type: ADME, organism-based; settings: in vivo
[26] = Ratio of drug concentration at steady state in human at 2.5 to 20 mg, po QD after 24 hrs to IC50 for human BSEP overexpressed in Sf9 insect cells; type: ADME, organism-based; settings: in vivo

Sequence of ATP-binding cassette sub-family C member 3 (O15438 whole entry): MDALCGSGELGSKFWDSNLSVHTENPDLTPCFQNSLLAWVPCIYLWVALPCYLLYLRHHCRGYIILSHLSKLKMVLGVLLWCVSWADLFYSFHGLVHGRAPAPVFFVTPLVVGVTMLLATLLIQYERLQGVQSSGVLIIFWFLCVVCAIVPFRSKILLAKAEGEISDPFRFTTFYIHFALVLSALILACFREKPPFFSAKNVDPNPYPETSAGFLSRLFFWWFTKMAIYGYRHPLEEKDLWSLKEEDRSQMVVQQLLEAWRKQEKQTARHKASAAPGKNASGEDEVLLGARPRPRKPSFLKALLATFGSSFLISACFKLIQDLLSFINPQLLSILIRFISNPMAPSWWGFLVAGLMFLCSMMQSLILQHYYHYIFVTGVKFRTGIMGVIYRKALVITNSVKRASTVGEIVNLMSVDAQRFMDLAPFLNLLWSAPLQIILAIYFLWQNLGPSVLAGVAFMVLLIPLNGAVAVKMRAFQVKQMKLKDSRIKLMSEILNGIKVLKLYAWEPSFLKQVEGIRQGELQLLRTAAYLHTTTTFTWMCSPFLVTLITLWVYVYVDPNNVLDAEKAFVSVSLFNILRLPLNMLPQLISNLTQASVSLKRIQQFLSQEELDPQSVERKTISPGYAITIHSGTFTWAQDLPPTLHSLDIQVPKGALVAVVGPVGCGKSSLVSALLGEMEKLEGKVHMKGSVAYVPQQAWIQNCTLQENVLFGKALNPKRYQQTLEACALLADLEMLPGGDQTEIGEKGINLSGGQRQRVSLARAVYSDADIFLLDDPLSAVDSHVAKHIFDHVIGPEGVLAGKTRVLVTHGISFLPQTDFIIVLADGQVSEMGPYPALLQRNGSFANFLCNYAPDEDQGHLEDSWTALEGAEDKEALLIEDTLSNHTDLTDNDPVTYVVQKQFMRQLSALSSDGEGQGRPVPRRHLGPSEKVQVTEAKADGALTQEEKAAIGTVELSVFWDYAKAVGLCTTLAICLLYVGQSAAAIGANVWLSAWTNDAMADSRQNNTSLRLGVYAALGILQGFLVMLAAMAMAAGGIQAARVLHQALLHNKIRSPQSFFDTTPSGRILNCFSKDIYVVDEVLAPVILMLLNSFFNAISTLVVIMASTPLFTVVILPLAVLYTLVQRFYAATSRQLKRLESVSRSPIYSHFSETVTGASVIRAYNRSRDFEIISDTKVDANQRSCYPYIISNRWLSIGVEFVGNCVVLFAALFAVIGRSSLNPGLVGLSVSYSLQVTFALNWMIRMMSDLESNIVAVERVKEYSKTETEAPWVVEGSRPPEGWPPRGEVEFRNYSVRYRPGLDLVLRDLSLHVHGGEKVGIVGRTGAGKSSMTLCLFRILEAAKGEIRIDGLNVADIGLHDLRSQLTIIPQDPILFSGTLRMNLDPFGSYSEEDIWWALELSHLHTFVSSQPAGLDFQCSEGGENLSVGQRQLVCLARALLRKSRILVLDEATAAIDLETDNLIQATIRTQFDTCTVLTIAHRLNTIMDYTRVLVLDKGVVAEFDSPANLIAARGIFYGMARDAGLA
Sequence of Bile salt export pump (O95342 whole entry): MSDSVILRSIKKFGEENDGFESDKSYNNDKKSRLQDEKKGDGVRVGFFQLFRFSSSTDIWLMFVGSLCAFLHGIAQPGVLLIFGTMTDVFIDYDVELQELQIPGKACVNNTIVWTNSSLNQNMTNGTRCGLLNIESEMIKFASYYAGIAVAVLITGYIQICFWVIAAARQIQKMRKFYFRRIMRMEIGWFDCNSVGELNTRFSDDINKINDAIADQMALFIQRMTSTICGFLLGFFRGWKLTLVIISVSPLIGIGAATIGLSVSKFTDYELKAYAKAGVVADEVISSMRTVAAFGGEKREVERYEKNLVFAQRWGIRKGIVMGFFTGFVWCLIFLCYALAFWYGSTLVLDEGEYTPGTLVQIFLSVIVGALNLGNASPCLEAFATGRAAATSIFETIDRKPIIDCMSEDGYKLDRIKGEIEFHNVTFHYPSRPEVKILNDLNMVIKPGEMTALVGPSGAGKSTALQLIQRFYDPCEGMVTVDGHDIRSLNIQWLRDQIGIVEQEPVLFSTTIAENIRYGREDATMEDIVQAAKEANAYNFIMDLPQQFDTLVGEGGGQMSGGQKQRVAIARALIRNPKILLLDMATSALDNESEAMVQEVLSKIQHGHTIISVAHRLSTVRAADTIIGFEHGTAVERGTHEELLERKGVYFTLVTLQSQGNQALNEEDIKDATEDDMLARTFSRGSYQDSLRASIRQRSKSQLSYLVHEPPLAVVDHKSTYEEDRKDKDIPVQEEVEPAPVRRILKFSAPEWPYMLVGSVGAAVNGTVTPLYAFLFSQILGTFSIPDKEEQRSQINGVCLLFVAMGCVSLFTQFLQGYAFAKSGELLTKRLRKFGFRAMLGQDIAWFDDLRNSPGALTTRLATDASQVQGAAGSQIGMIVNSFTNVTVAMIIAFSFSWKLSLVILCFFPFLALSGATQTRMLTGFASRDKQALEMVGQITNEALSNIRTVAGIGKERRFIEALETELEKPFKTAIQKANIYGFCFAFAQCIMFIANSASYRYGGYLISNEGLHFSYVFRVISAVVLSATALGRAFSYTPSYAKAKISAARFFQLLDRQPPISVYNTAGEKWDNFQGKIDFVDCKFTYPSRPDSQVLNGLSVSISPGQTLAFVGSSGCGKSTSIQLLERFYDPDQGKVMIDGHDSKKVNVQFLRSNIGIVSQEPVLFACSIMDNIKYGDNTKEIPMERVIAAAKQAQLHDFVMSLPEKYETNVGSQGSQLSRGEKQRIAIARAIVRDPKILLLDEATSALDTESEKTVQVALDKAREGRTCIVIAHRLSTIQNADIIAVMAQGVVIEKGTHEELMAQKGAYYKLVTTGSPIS
Sequence of ATP-binding cassette sub-family C member 2 (Q92887 whole entry): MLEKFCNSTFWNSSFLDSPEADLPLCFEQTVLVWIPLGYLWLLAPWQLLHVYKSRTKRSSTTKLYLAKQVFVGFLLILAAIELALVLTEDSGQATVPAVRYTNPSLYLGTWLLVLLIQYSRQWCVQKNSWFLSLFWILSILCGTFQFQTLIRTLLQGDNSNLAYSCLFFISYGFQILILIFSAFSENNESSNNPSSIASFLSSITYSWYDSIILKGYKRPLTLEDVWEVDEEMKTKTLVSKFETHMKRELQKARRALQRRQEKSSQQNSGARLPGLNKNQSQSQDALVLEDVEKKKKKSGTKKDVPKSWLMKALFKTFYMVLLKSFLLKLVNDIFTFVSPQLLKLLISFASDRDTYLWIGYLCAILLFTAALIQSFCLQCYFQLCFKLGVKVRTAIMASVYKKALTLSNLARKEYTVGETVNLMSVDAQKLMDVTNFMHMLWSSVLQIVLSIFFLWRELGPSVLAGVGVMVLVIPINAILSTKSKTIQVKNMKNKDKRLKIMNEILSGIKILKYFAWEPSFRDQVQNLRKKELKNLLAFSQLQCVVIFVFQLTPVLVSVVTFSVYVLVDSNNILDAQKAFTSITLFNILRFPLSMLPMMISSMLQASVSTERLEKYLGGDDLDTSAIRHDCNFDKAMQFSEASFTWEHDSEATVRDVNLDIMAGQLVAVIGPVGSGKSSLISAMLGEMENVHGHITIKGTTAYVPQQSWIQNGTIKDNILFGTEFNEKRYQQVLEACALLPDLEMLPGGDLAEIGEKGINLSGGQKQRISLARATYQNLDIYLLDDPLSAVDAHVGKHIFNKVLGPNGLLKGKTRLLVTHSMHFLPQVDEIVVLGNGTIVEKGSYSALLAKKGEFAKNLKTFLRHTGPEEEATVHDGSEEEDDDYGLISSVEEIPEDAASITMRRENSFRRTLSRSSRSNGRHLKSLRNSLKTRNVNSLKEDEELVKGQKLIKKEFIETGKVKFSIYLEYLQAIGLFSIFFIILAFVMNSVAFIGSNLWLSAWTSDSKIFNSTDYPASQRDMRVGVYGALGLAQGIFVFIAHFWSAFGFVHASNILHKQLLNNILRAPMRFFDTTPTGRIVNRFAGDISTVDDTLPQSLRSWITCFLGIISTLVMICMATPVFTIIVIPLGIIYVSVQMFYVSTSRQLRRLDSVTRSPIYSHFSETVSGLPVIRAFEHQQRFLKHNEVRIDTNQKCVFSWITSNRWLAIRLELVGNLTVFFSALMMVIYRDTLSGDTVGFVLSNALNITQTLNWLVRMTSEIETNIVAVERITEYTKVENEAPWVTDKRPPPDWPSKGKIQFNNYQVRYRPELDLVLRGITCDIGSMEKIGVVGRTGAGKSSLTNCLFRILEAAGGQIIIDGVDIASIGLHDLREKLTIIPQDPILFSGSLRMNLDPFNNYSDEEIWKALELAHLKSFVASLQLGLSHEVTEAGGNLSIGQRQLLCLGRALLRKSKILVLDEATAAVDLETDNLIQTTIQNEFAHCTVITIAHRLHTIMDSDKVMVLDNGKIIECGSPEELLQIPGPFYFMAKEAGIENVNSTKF

C#C[C@@]1(OC(C)=O)CC[C@H]2[C@@H]3CCC4=CC(=O)CC[C@@H]4[C@H]3CC[C@@]21C
IC50 [1]: > 133 µM
AUC at 24 h [2]: 0.494 µM·h
concentration at 24 h [3]: 21 nM
IC50 [4]: > 133 µM
Ratio [5]: 0.00057
IC50 [6]: > 133 µM
IC50 (Bile salt export pump): 36 µM

COc1cc2nc(N3CCN(C(=O)C4COc5ccccc5O4)CC3)nc(N)c2cc1OC.CS(=O)(=O)O (configuration not stated) [DOXAZOSIN MESYLATE]
IC50 [1]: 8 µM
Ratio [7]: 0.002
IC50 [4]: > 133 µM
AUC at 24 h [8]: 1.64 µM·h
Ratio [9]: 0.009
IC50 [6]: > 133 µM
IC50 (Bile salt export pump): 45 µM
Css (Homo sapiens): 68 nM

CCCCc1oc2ccc(NS(C)(=O)=O)cc2c1C(=O)c1ccc(OCCCN(CCCC)CCCC)cc1.Cl [DRONEDARONE HYDROCHLORIDE]
concentration at 12 h [10]: 133 nM
IC50 [1]: > 133 µM
IC50 [4]: > 133 µM
Ratio [11]: 0.002
IC50 [6]: > 133 µM
AUC at 12 h [12]: 1.6 µM·h
IC50 (Bile salt export pump): 73.9 µM

CC(C)(C)NC(=O)[C@H]1CC[C@H]2[C@@H]3CC[C@H]4NC(=O)C=C[C@]4(C)[C@H]3CC[C@]12C [FINASTERIDE]
IC50 [1]: 51 µM
Ratio [13]: 0.00147
AUC at 24 h [14]: 0.993 µM·h
concentration at 24 h [15]: 41 nM
IC50 [4]: > 133 µM
AUC at 24 h [16]: 0.993 µM·h
Ratio [17]: 0.00147
Ratio [18]: 0.001
IC50 [6]: > 133 µM
concentration at 24 h [19]: 41 nM
Ratio [20]: 0.001

COc1cc(C(C)=O)ccc1OCCCN1CCC(c2noc3cc(F)ccc23)CC1 [ILOPERIDONE]
concentration at 12 h [21]: 9 nM
IC50 [1]: > 133 µM
IC50 [4]: > 133 µM
Ratio [22]: 0.00038
AUC at 12 h [23]: 0.106 µM·h
IC50 [6]: > 133 µM
IC50 (Bile salt export pump): 23.4 µM

COC(=O)C1=C(C)NC(C)=C(C(=O)OC(C)C)C1c1cccc2nonc12 (configuration not stated) [ISRADIPINE]
concentration at 24 h [24]: 8 nM
AUC at 24 h [25]: 0.197 µM·h
IC50 [1]: > 133 µM
IC50 [4]: > 133 µM
Ratio [26]: 0.0003
IC50 [6]: > 133 µM
IC50 (Bile salt export pump): 28 µM
